Assay results from patent publication EP4707280A1, “1,4-CINEOLE DERIVATIVE AND INTERMEDIATE THEREOF, HERBICIDE CONTAINING SAID DERIVATIVE AS ACTIVE INGREDIENT, METHOD FOR USING HERBICIDE, AND METHOD FOR PREPARING AGROCHEMICAL COMPOSITION” (HOKKO CHEMICAL INDUSTRY CO., LTD., priority 2023, dated 2024).

Assays:
Assay type in all cases: in vivo
[1] = tested on: Echinochloa crus-galli var. formosensis; assay: Test Example 1: herbicidal effect test by soil application in paddy rice; details: 120 g active ingredient per 10 ares, applied immediately after sowing, flooded pots, 14 days after application; for pest or weed control at 1200 g/ha: Echinochloa crus-galli, soil, 336 h, read-out: weed inhibition rate
In short: (§1)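 Paddy soil in Wagner pots (1/10,000 acre), fertilized and puddled; 30 seeds per species sown at 0–1 cm, flooded to ~3 cm, greenhouse. Water-diluted emulsifiable concentrate dropped onto flooded pots right after sowing at 120 g active ingredient per 10 ares.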

[2] = tested on: Scirpus juncoides; assay: as above; details: 120 g active ingredient per 10 ares, applied immediately after sowing, flooded pots, 14 days after application; for pest or weed control at 1200 g/ha: Schoenoplectiella juncoides, soil, 336 h, read-out: weed inhibition rate
In short: as §1

[3] = tested on: Echinochloa crus-galli var. formosensis; assay: Test Example 2: herbicidal effect test by application during growth period of paddy rice; details: 120 g per 10 ares, applied seven days after sowing, flooded pots, 14 days after application; for inhibition at 1200 g/ha: Echinochloa crus-galli, read-out: weed inhibition rate
In short: (§2)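 Weeds sown into puddled, flooded paddy soil received a post-emergence water application of emulsifiable concentrate at 120 g active ingredient per 10 ares, seven days after sowing. Herbicidal effect was rated 14 days later as inhibition (%).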

[4] = tested on: Scirpus juncoides; assay: as above; details: 120 g per 10 ares, applied seven days after sowing, flooded pots, 14 days after application; for inhibition at 1200 g/ha: Schoenoplectiella juncoides, read-out: weed inhibition rate
In short: as §2

[5] = tested on: Digitaria ciliaris; assay: Test Example 3: herbicidal effect test by soil application in upland field; details: 120 g per 10 ares, sprayed one day after sowing, 14 days after application; for inhibition at 1200 g/ha: Digitaria ciliaris, read-out: weed inhibition rate
In short: (§3)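 Pre-emergence test: seeds mixed into top 1 cm of alluvial loam upland soil in pots; emulsifiable concentrate diluted in water sprayed on soil one day after sowing at 100 L/10 a, 120 g a.i./10 a. Weed inhibition rate (%) scored at 14 days, in duplicate.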

[6] = tested on: Echinochloa crus-galli; assay: as above; details: 120 g per 10 ares, sprayed one day after sowing, 14 days after application; for inhibition at 1200 g/ha: Echinochloa crus-galli, read-out: weed inhibition rate
In short: as §3

[7] = tested on: Digitaria ciliaris; assay: Test Example 4: herbicidal effect test by stem and leaf treatment in upland field; details: 120 g per 10 ares, sprayed seven days after sowing, upland soil, 14 days after application; for inhibition at 1200 g/ha: Digitaria ciliaris, read-out: weed inhibition rate
[8] = tested on: Echinochloa crus-galli; assay: as above; details: 120 g per 10 ares, sprayed seven days after sowing, upland soil, 14 days after application; for inhibition at 1200 g/ha: Echinochloa crus-galli, read-out: weed inhibition rate
[9] = tested on: Echinochloa crus-galli var. formosensis; assay: Test Example 5: herbicidal effect test by soil application in paddy rice (low dose); details: 7.5 g per 10 ares, applied immediately after sowing, flooded pots, 14 days after application; for inhibition at 75 g/ha: Echinochloa crus-galli, soil, 336 h, read-out: weed inhibition rate
In short: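 Pots of puddled, fertilized paddy soil receive 30 seeds per species at 0–1 cm depth and are flooded to about 3 cm. The diluted emulsifiable concentrate is then dropped onto the water, delivering 7.5 g active ingredient per 10 ares. Greenhouse grown; herbicidal effect scored 14 days later, two replicates.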

[10] = tested on: Echinochloa crus-galli var. formosensis; assay: Test Example 6: herbicidal effect test by application during growth period of paddy rice (low dose); details: 7.5 g per 10 ares, applied seven days after sowing, flooded pots, 14 days after application; for inhibition at 75 g/ha: Echinochloa crus-galli, read-out: weed inhibition rate
In short: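 Paddy-soil pots, flooded ~3 cm after sowing weed seeds at 0-1 cm depth, greenhouse-grown. Seven days after sowing, diluted emulsifiable concentrate applied by dropper at 7.5 g active ingredient per 10 ares. Weed inhibition rate (%) scored 14 days after application, in duplicate.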

[11] = tested on: Digitaria ciliaris; assay: Test Example 7: herbicidal effect test by soil application in upland field (low dose); details: 7.5 g per 10 ares, sprayed one day after sowing, 14 days after application; for inhibition at 75 g/ha: Digitaria ciliaris, read-out: weed inhibition rate
In short: (§4)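 Low-dose soil treatment at 7.5 g a.i. per 10 a, applied as a diluted emulsifiable concentrate sprayed onto the soil surface one day after sowing in upland alluvial loam. Duplicate pots; percent weed inhibition is read 14 days after application.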

[12] = tested on: Echinochloa crus-galli; assay: as above; details: 7.5 g per 10 ares, sprayed one day after sowing, 14 days after application; for inhibition at 75 g/ha: Echinochloa crus-galli, read-out: weed inhibition rate
In short: as §4

[13] = tested on: Digitaria ciliaris; assay: Test Example 8: herbicidal effect test by stem and leaf treatment in upland field (low dose); details: 7.5 g per 10 ares, sprayed seven days after sowing, upland soil, 14 days after application; for inhibition at 75 g/ha: Digitaria ciliaris, read-out: weed inhibition rate
[14] = tested on: Echinochloa crus-galli; assay: as above; details: 7.5 g per 10 ares, sprayed seven days after sowing, upland soil, 14 days after application; for inhibition at 75 g/ha: Echinochloa crus-galli, read-out: weed inhibition rate

CC(C)[C@]12C[C@@H](OCc3ccccc3C#N)[C@](C)(C[C@@H]1I)O2 [1-768, 2-[[(l S,2R,4R,5S)-5-iodo-4-isopropyl-l-methyl-7-oxabicyclo[2.2.1]heptan-2-yl]oxymethyl]benzonitrile]
≥ 80%: weed inhibition rate [1] | weed inhibition rate [2] | weed inhibition rate [3] | weed inhibition rate [4] | weed inhibition rate [5] | weed inhibition rate [6] | weed inhibition rate [7] | weed inhibition rate [8] | weed inhibition rate [9] | weed inhibition rate [10] | weed inhibition rate [11] | weed inhibition rate [12] | weed inhibition rate [13] | weed inhibition rate [14]

CC(C)[C@]12C[C@@H](OCc3ccsc3)[C@](C)(C[C@@H]1Cl)O2 [1-662, (1R,2S,4S,5R)-2-chloro-1-isopropyl-4-methyl-5-(3-thienylmethoxy)-7-oxabicyclo[2.2.1]heptane]
≥ 80%: pest or weed control at 1200 g/ha [1] | pest or weed control at 1200 g/ha [2] | inhibition at 1200 g/ha [3] | inhibition at 1200 g/ha [4] | inhibition at 1200 g/ha [5] | inhibition at 1200 g/ha [6] | inhibition at 1200 g/ha [7] | inhibition at 1200 g/ha [8] | inhibition at 75 g/ha [9] | inhibition at 75 g/ha [10] | inhibition at 75 g/ha [11] | inhibition at 75 g/ha [12] | inhibition at 75 g/ha [13] | inhibition at 75 g/ha [14]

CC(C)[C@]12C[C@@H](OCc3c(F)cccc3Cl)[C@](C)(C[C@@H]1I)O2 [1-780, (1R,2S,4S,5R)-5-[(2-chloro-6-fluoro-phenyl)methoxy]-2-iodo-1-isopropyl-4-methyl-7-oxabicyclo[2.2.1]heptane]
≥ 80%: pest or weed control at 1200 g/ha [1] | pest or weed control at 1200 g/ha [2] | inhibition at 1200 g/ha [3] | inhibition at 1200 g/ha [4] | inhibition at 1200 g/ha [5] | inhibition at 1200 g/ha [6] | inhibition at 1200 g/ha [7] | inhibition at 1200 g/ha [8] | inhibition at 75 g/ha [9] | inhibition at 75 g/ha [10] | inhibition at 75 g/ha [11] | inhibition at 75 g/ha [12] | inhibition at 75 g/ha [13] | inhibition at 75 g/ha [14]

CC(C)C12C=CC(C)(O1)C(OCc1ccsc1)C2 (stereo not shown) [3-757, 1-isopropyl-4-methyl-5-(3-thienylmethoxy)-7-oxabicyclo[2.2.1]hept-2-ene]
≥ 80%: pest or weed control at 1200 g/ha [1] | pest or weed control at 1200 g/ha [2] | inhibition at 1200 g/ha [3] | inhibition at 1200 g/ha [4] | inhibition at 1200 g/ha [5] | inhibition at 1200 g/ha [6] | inhibition at 1200 g/ha [7] | inhibition at 1200 g/ha [8] | inhibition at 75 g/ha [9] | inhibition at 75 g/ha [10] | inhibition at 75 g/ha [11] | inhibition at 75 g/ha [12] | inhibition at 75 g/ha [13] | inhibition at 75 g/ha [14]

Cc1cccc(C)c1CO[C@@H]1C[C@]2(C(C)C)O[C@@]1(C)C[C@@H]2Cl [1-10, (1R,2S,4S,5R)-2-chloro-5-[(2,6-dimethylphenyl)methoxy]-1-isopropyl-4-methyl-7-oxabicyclo[2.2.1]heptane]
≥ 80%: pest or weed control at 1200 g/ha [1] | pest or weed control at 1200 g/ha [2] | inhibition at 1200 g/ha [3] | inhibition at 1200 g/ha [4] | inhibition at 1200 g/ha [5] | inhibition at 1200 g/ha [6] | inhibition at 1200 g/ha [7] | inhibition at 1200 g/ha [8] | inhibition at 75 g/ha [9] | inhibition at 75 g/ha [10] | inhibition at 75 g/ha [11] | inhibition at 75 g/ha [12] | inhibition at 75 g/ha [13] | inhibition at 75 g/ha [14]
